According to ChEMBL document CHEMBL4651402, “Screening of ~5500 FDA-approved drugs and clinical candidates for anti-SARS-CoV-2 activity” (2021):

System: SARS-CoV-2
Assay: microbe, parasite or virus in culture
Conditions: Severe acute respiratory syndrome coronavirus 2, Vero C1008, 48 h

| SMILES | IC50 | IC50 (read-out: pIC50 (converted)) |
| --- | --- | --- |
| C[C@]12CC[C@H]3C(=CCc4cc(O)ccc43)[C@@H]1CCC2=O [EQUILIN] | > 20 µM | > 20 µM |
| CC(=O)[C@H]1CC[C@H]2[C@@H]3CC[C@H]4C[C@H](O)CC[C@]4(C)[C@H]3C(=O)C[C@]12C [ALFAXALONE] | > 20 µM | > 20 µM |
| CC1CNc2c(cccc2S(=O)(=O)N[C@@H](CCCNC(=N)N)C(=O)N2CC[C@H](C)C[C@@H]2C(=O)O)C1 (stereo partly drawn) | > 20 µM | > 20 µM |
| CCCCCC(=O)CCC1(C)C2Cc3ccc(O)cc3C1(C)CCN2C (stereo not drawn) | > 20 µM | > 20 µM |
| Cc1cccc(C)c1NC(=O)NCCCNC(C)C | > 20 µM | > 20 µM |
| CC1=N[C@H](C(=O)O)[C@@H](O)CN1 | > 20 µM | > 20 µM |
| Cn1c(=O)[nH]c(=O)c2[nH]cnc21 [3-METHYLXANTHINE] | > 20 µM | > 20 µM |
| COc1cc2ncnc(Nc3cccc(Br)c3)c2cc1OC | > 20 µM | > 20 µM |
| O=C(NNCS(=O)(=O)O)c1ccncc1 [METHANIAZIDE] | > 20 µM | > 20 µM |
| COc1ccc(C2CNC(=O)NC2)cc1O[C@@H]1C[C@H]2CC[C@@H]1C2 | > 20 µM | > 20 µM |
| O=C(NCCO[N+](=O)[O-])c1cccnc1 [NICORANDIL] | > 20 µM | > 20 µM |
| O=C(O)Cc1ccc(-c2ccccc2)cc1 [FELBINAC] | > 20 µM | > 20 µM |
| COc1ccc(C(=O)OC2CCC3(C)C4CCC5[C@]6(O)[C@@H](O)C(O)[C@H]7C(CN8CC(C)CC[C@H]8[C@@]7(C)O)[C@@H]6C[C@@]53O[C@]24O)cc1OC (stereo partly drawn) | > 20 µM | > 20 µM |
| NC(=O)C1(N2CCCCC2)CCN(CCCC(=O)c2ccc(F)cc2)CC1 [PIPAMPERONE] | > 20 µM | > 20 µM |
| COc1ccc2cc1Oc1cc3c(cc1OC)CC[N+](C)(C)C3Cc1ccc(cc1)Oc1c(OC)c(OC)cc3c1C(C2)[N+](C)(C)CC3 (stereo not drawn) | > 20 µM | > 20 µM |
| CC1(COc2ccc3c(c2)ncn3-c2ccc3cccc(N4CCC(N)CC4)c3n2)COC1 [CRENOLANIB] | > 20 µM | > 20 µM |
| COC(=O)C1=C(C)NC(C)=C(C(=O)OC)C1c1ccccc1[N+](=O)[O-] [NIFEDIPINE] | > 20 µM | > 20 µM |
| Cc1ncc(C[n+]2csc(CCO)c2C)c(N)n1 [THIAMINE ION] | > 20 µM | > 20 µM |
| CC(C)CC(NC(=O)C(Cc1ccccc1)NC(=O)CNC(=O)[C@H](C)NC(=O)C(N)Cc1ccc(O)cc1)C(=O)N[C@H](CCCNC(=N)N)C(=O)O (stereo partly drawn) | > 20 µM | > 20 µM |
| CCCCc1ncc(C=C(Cc2cccs2)C(=O)O)n1Cc1ccc(C(=O)O)cc1 | > 20 µM | > 20 µM |
| CCN1C[C@]2(C)CC[C@H](O)[C@@]34[C@@H]5C[C@H]6[C@H](O)[C@@H]5[C@](O)(C[C@@H]6OC)[C@@H](C[C@H]23)[C@H]14 | > 20 µM | > 20 µM |
| O=C(CO)[C@@H](O)[C@H](O)[C@H](O)CO [FRUCTOSE] | > 20 µM | > 20 µM |
| C=CC(=O)N1C[C@H](Nc2ncnc3[nH]ccc23)CC[C@@H]1C [RITLECITINIB] | > 20 µM | > 20 µM |
| CC(C)c1cnn2c(NCc3ccccc3)cc(NC[C@H]3CCNC[C@@H]3O)nc12 [CT-7001] | > 20 µM | > 20 µM |
| N=C(N)c1ccc(OCCCCCOc2ccc(C(=N)N)cc2)cc1 [PENTAMIDINE] | > 20 µM | > 20 µM |
| Cn1c([N+](=O)[O-])cnc1/C=N/N1CC(CN2CCOCC2)OC1=O (stereo not drawn) [MOXNIDAZOLE] | > 20 µM | > 20 µM |
| CC12CCC3C4CCC(=O)C=C4CCC3C1CCC2=O (stereo not drawn) | > 20 µM | > 20 µM |
| CCOC(=O)C(CCN1CCOCC1)(c1ccccc1)c1ccccc1 [DIOXAPHETYL BUTYRATE] | > 20 µM | > 20 µM |
| O=C(O)/C=C/c1c[nH]cn1 | > 20 µM | > 20 µM |
